Consider one molecule from patent US9562082B2, “Production of glycoproteins with low N-glycolylneuraminic acid (Neu5Gc) content” (LEK Pharmaceuticals D.D., priority 2009, dated 2017).

For test [1], the system named is Recombinant CHO cells. Briefly: Neu5Gc content of glycoprotein secreted by CHO cells cultivated with medium additives (RP-HPLC of DMB-labelled sialic acids). The test is classed as cell-based, Chinese hamster. The source says:
Recombinant CHO cells expressing high titres of the glycosylated human glycoproteins were cultivated in suspension culture using rich in-house standard medium without additives according to the invention. After 2 weeks of passages, the cells were first harvested and subsequently inoculated into the same medium, however, supplemented with a range of DMSO concentrations from 0.25% to 1.50% (w/v). The effect of DMSO on growth, productivity, degree of sialylation, and Neu5Gc content was studied.
“One factor at the time”-experiments with different DMSO concentrations at 37° C. and 33° C., respectively, were performed at first in an attempt to determine the DMSO concentration and temperature which are best to minimise the Neu5Gc content on the glycoproteins secreted. To study the interaction between the parameters (i) DMSO concentration, (ii) time of DMSO addition, and (iii) time of the temperature shift (from 37° C. to 33° C.), further experiments were performed with the Design-Expert/Design-Ease programme (Stat-Ease, Inc., Minneapolis, Minn., USA) using the response surface method. Parameters (i), (ii), and (iii) were chosen as numeric factors and the axial points were set slightly out of already known ranges in order to cover a wide design space. One replicate on axial points, one replicate on factorial points and 4 centre points were performed. The results were analysed using the Design of Expert (DOE) software (Design-Expert, Version 7.1). The results of the shake flask experiments were confirmed in the Biostat®B bioreactor (Sartorius, B. Braun Biotech International, Germany). Exponentially growing cells were taken from cell culture flasks having a surface area of 225 cm^2 (Corning®Costar®). A Biostat®B bioreactor with a working volume of 5 litres was inoculated with 2×10^5 cells/ml. Cells were cultivated in a batch mode under standard conditions (37° C., pH 7.0, dissolved oxygen concentration (DOT) 50%) in the rich in-house standard medium supplemented with 0.75% (w/v) DMSO.
In order to study the effect of key intermediates of the metabolic pathway leading to the sialylation of the glycoproteins and consequently to the conversion of Neu5Ac to Neu5Gc, a two factorial minimal resolution IV design, which allows for the estimation of the main effects, was established. Said design allowed the determination which of the components NAcMan, NAcGlc, Man, Fru, and Gal has/have an impact on the degree of sialylation and conversion of Neu5Ac to Neu5Gc. To confirm the results from the DOE findings, the production medium was enriched with 8.75 mM NAcMan and 8.75 mM NAcGlc in combination with manganese (Mn^2+) salts in different concentrations, e.g., in the concentrations mentioned earlier in this application.
At the end of the batch culture the cells were removed. The glycoproteins were purified from the remaining harvests by means of immuno-affinity chromatography. Briefly, up to 2 mg of each of the glycoproteins per ml of the chromatographic resin (20-500 ml of the harvest) were loaded onto the column. Elution of the glycoproteins was performed with 0.1 M Na-phosphate buffer, pH 2.5. By adding 1 M Na-phosphate buffer, pH 7.5 (made up by a combination of Na2H-phosphate and NaH2-phosphate), the pH of the eluate was immediately adjusted to 7 and then stored for further analysis at below −60° C.
Sialic acids (Neu5Gc, Neu5Ac, Neu-5,7Ac2, Neu5Gc9Ac, Neu-5,9Ac2, Neu-5,8,9Ac3) were differentiated using highly sensitive RP-HPLC. Enzymatic desialylation with neuraminidase (a2-3,6,8,9-neuraminidase (Sialidase) from Arthrobacter ureafaciens, Roche, USA) released sialic acids. The released sialic acids were labelled with the fluorescent dye 1,2-diamino-4,5-methylenedioxybenzene (DMB). DMB-labelling is non-selective and therefore provides a pool of labelled sialic acid derivates in stoichiometric amounts. Derivates of the DMB-labelled sialic acids were separated on an RP-HPLC column using isocratic elution. […]

Test [2] deals with Recombinant CHO cells. The experiment in a line: Titre of secreted glycoprotein by ELISA. The test is classed as cell-based, Chinese hamster. As to the method:
Cell viability was determined by the trypan blue exclusion method. The cell concentration was determined using a Vi-CELL™ Series Cell Viability Analyzer (Beckman Coulter, Fullerton, Calif., USA). Glucose, lactate, glutamine, and ammonia (NH4^+) concentrations were measured during the growth phase using a BioProfile Analyzer for mammalian cell culture (BioProfile 100 plus, Nova Biomedical, Waltham, USA). Additionally, oxygen and […] concentrations were monitored daily using pHOx (Stat Prophile pHOx Basic, Nova Biomedical, Waltham, USA). Secreted glycoprotein concentrations were quantified by enzyme linked immunosorbent assay (ELISA), and the titres were expressed in μg/ml.
The concentration of the secreted glycoproteins was quantified using an enzyme linked immunosorbent assay kit from R&D Systems (R&D Systems, Inc., Minneapolis, Minn., USA) according to the manufacturer's instructions. Microplate wells, pre-coated with monoclonal (mouse) antibodies specific for the respective glycoproteins expressed were first incubated with standard blank samples and specimens. […] The absorbance of the coloured solution was measured photometrically at 450 nm (Micro plate reader, Tecan, Columbus, USA) and was proportional to the concentration of the glycoprotein in the sample.

For `C[S+](C)[O-]` [DMSO, dimethyl sulfoxide], the “average Neu5Gc content for all glycoproteins tested” value stood at 1.46% in test [1] (0.25% DMSO); 1.17% in test [1] (0.5% DMSO); 0.93% in test [1] (0.75% DMSO); 0.88% in test [1] (1% DMSO); 0.79% in test [1] (1.25% DMSO). Further, in test [1] (0.75% (w/v) DMSO, 5 litre bioreactor batch, vs batch without DMSO), the “content of Neu5Gc lowered by” value was 50-60%. Further, the Neu5Gc content entry in test [1] (darbepoetin alfa, 0.75% (w/v) DMSO, FIG. 1b) is on record as “about 0.9%”. Further, the “content of Neu5Gc” value in test [1] (darbepoetin alfa, bioreactor batch process, 0.75% (w/v) DMSO) was “about 1%”; in test [1] (darbepoetin alfa, shake flask batch process, 0.75% (w/v) DMSO), “about 0.8%”. The “Titre, DOE point prediction” value in test [2] (DMSO 0.75, temperature 37) was 65.56 µg/mL. Also, in test [2] (darbepoetin alfa, with DMSO), the titre was ~57 µg/mL.
